Data from ChEMBL document CHEMBL3045668, “Synthesis, antioxidant, and antibacterial studies of phenolic esters and amides of 2-(1-benzofuran-2-yl) quinoline-4-carboxylic acid” (Med Chem Res, 2013).
In brackets after ≈: the same amount, converted by molar mass.

Key:
[1] = tested on: Pantoea dispersa; assay: Antibacterial activity against Pantoea dispersa after 18 to 20 hr by serial broth dilution method; assay type: functional
[2] = tested on: Staphylococcus aureus; assay: Antibacterial activity against Staphylococcus aureus after 18 to 20 hr by serial broth dilution method; assay type: functional
[3] = tested on: Staphylococcus aureus; assay: Antibacterial activity against Staphylococcus aureus at 1 mg/ml after 24 hr by agar well diffusion assay; assay type: functional; conditions: read-out: IZ
[4] = tested on: Enterococcus; assay: Antibacterial activity against Enterococcus after 18 to 20 hr by serial broth dilution method; assay type: functional
[5] = tested on: Enterococcus; assay: Antibacterial activity against Enterococcus at 1 mg/ml after 24 hr by agar well diffusion assay; assay type: functional; conditions: read-out: IZ
[6] = tested on: Ochrobactrum; assay: Antibacterial activity against Ochrobactrum after 18 to 20 hr by serial broth dilution method; assay type: functional
[7] = Metal chelating activity assessed as inhibition of Fe2+-ferrozine complex at 0.5 to 2 mg/ml after 10 min by spectrophotometric analysis; assay type: physicochemical
[8] = tested on: Pantoea dispersa; assay: Antibacterial activity against Pantoea dispersa at 1 mg/ml after 24 hr by agar well diffusion assay; assay type: functional; conditions: read-out: IZ
[9] = tested on: Ochrobactrum; assay: Antibacterial activity against Ochrobactrum at 1 mg/ml after 24 hr by agar well diffusion assay; assay type: functional; conditions: read-out: IZ
[10] = tested on: Radical scavenging activity; assay: Antioxidant activity assessed as DPPH radical scavenging activity […] after 30 min by spectrophotometric analysis; assay type: functional

| Compound | MIC [1] | MIC [2] | MIC [4] | MIC [6] | inhibition (INH) [7] | IC50 [10] | zone of inhibition at 1000 µg/mL [3] | zone of inhibition at 1000 µg/mL [5] | zone of inhibition at 1000 µg/mL [8] | zone of inhibition at 1000 µg/mL [9] |
| --- | --- | --- | --- | --- | --- | --- | --- | --- | --- | --- |
| O=C(Oc1ccc2ccccc2c1)c1cc(-c2cc3ccccc3o2)nc2ccccc12 | 250 µg/mL (≈ 602 µM) | 500 µg/mL (≈ 1200 µM) | > 500 µg/mL | > 500 µg/mL | Active | 15.6 µg/mL (≈ 37.5 µM) | 12 mm | 10 mm | 12 mm | 12 mm |
| O=C(Oc1ccc(Br)cc1)c1cc(-c2cc3ccccc3o2)nc2ccccc12 | 500 µg/mL (≈ 1130 µM) | 60 µg/mL (≈ 135 µM) | 60 µg/mL (≈ 135 µM) | 250 µg/mL (≈ 563 µM) | Active | – | 18 mm | 16 mm | 14 mm | 15 mm |
| Cc1ccc(OC(=O)c2cc(-c3cc4ccccc4o3)nc3ccccc23)cc1 | 250 µg/mL (≈ 659 µM) | 60 µg/mL (≈ 158 µM) | 60 µg/mL (≈ 158 µM) | 60 µg/mL (≈ 158 µM) | Active | 49.5 µg/mL (≈ 130 µM) | 19 mm | 19 mm | 13 mm | 20 mm |
| Cc1nccn1C(=O)c1cc(-c2cc3ccccc3o2)nc2ccccc12 | 250 µg/mL (≈ 707 µM) | > 500 µg/mL | > 500 µg/mL | 250 µg/mL (≈ 707 µM) | – | – | 8 mm | 9 mm | 15 mm | 12 mm |
| O=C(Oc1c(Cl)cc(Cl)cc1Cl)c1cc(-c2cc3ccccc3o2)nc2ccccc12 | 250 µg/mL (≈ 533 µM) | 500 µg/mL (≈ 1070 µM) | 500 µg/mL (≈ 1070 µM) | 500 µg/mL (≈ 1070 µM) | – | 24.34 µg/mL (≈ 51.9 µM) | 12 mm | 10 mm | 14 mm | 12 mm |
| O=C(c1cc(-c2cc3ccccc3o2)nc2ccccc12)N1CCOCC1 | 250 µg/mL (≈ 698 µM) | > 500 µg/mL | 120 µg/mL (≈ 335 µM) | 500 µg/mL (≈ 1400 µM) | – | – | 10 mm | 13 mm | 13 mm | 11 mm |
| O=C(c1cc(-c2cc3ccccc3o2)nc2ccccc12)N1CCCCC1 | > 500 µg/mL | > 500 µg/mL | > 500 µg/mL | > 500 µg/mL | – | – | 11 mm | 7 mm | 10 mm | 9 mm |

The next compounds have a lower MIC [1] than those just listed; values first:

| MIC [1] | MIC [2] | MIC [4] | MIC [6] | inhibition (INH) [7] | IC50 [10] | Compound | zone of inhibition at 1000 µg/mL [3] | zone of inhibition at 1000 µg/mL [5] | zone of inhibition at 1000 µg/mL [8] | zone of inhibition at 1000 µg/mL [9] |
| --- | --- | --- | --- | --- | --- | --- | --- | --- | --- | --- |
| 60 µg/mL (≈ 172 µM) | 60 µg/mL (≈ 172 µM) | 60 µg/mL (≈ 172 µM) | 60 µg/mL (≈ 172 µM) | – | – | CC1(C)S[C@@H]2[C@H](NC(=O)[C@H](N)c3ccccc3)C(=O)N2[C@H]1C(=O)O [AMPICILLIN] | 20 mm | 24 mm | 20 mm | 21 mm |
| 120 µg/mL (≈ 300 µM) | 500 µg/mL (≈ 1250 µM) | 500 µg/mL (≈ 1250 µM) | 250 µg/mL (≈ 625 µM) | – | > 100 µg/mL | O=C(Oc1ccccc1Cl)c1cc(-c2cc3ccccc3o2)nc2ccccc12 | 12 mm | 10 mm | 16 mm | 14 mm |
| 60 µg/mL (≈ 150 µM) | 120 µg/mL (≈ 300 µM) | 120 µg/mL (≈ 300 µM) | 60 µg/mL (≈ 150 µM) | Active | – | O=C(Oc1ccc(Cl)cc1)c1cc(-c2cc3ccccc3o2)nc2ccccc12 | 17 mm | 14 mm | 18 mm | 17 mm |
| 120 µg/mL (≈ 276 µM) | 250 µg/mL (≈ 576 µM) | 250 µg/mL (≈ 576 µM) | 120 µg/mL (≈ 276 µM) | – | – | O=C(Oc1ccc(Cl)cc1Cl)c1cc(-c2cc3ccccc3o2)nc2ccccc12 | 14 mm | 11 mm | 16 mm | 14 mm |
| 120 µg/mL (≈ 328 µM) | 60 µg/mL (≈ 164 µM) | 120 µg/mL (≈ 328 µM) | 60 µg/mL (≈ 164 µM) | Active | – | O=C(Oc1ccccc1)c1cc(-c2cc3ccccc3o2)nc2ccccc12 | 16 mm | 12 mm | 18 mm | 16 mm |
| 120 µg/mL (≈ 316 µM) | 60 µg/mL (≈ 158 µM) | 60 µg/mL (≈ 158 µM) | 25 µg/mL (≈ 65.9 µM) | – | – | Cc1ccccc1OC(=O)c1cc(-c2cc3ccccc3o2)nc2ccccc12 | 17 mm | 16 mm | 19 mm | 18 mm |
| 120 µg/mL (≈ 289 µM) | 250 µg/mL (≈ 602 µM) | 500 µg/mL (≈ 1200 µM) | 500 µg/mL (≈ 1200 µM) | Active | 45.6 µg/mL (≈ 110 µM) | O=C(Oc1cccc2ccccc12)c1cc(-c2cc3ccccc3o2)nc2ccccc12 | 14 mm | 13 mm | 15 mm | 11 mm |
